Paper PMC7721954, “Preclinical comparison of four [^18F, ^natGa]rhPSMA-7 isomers: influence of the stereoconfiguration on pharmacokinetics” (EJNMMI Research, 2020)
Where two headings read alike, the source gives them in different places.

Legend:
PSMA [1] = target: T1, PSMA (Homo sapiens, UniProt Q04609); conditions: LNCaP cells, 1 h, 4 °C, n = 3; read-out: IC50 (binding affinity); cited from earlier work
T1 construct: host or cells: LNCaP cells

LNCaP cells [2] = conditions: 1 h, 37 °C, percentage of reference ligand ([125I]I-BA)KuE, n = 3; cited from earlier work
[3] = n-octanol/PBS pH 7.4, cited from earlier work
human serum albumin [4] = target: T2, human serum albumin (Homo sapiens, UniProt P02768); conditions: Chiralpak HSA column, cited from earlier work
T2 construct: purchased
T2 sequence (P02768 25-609): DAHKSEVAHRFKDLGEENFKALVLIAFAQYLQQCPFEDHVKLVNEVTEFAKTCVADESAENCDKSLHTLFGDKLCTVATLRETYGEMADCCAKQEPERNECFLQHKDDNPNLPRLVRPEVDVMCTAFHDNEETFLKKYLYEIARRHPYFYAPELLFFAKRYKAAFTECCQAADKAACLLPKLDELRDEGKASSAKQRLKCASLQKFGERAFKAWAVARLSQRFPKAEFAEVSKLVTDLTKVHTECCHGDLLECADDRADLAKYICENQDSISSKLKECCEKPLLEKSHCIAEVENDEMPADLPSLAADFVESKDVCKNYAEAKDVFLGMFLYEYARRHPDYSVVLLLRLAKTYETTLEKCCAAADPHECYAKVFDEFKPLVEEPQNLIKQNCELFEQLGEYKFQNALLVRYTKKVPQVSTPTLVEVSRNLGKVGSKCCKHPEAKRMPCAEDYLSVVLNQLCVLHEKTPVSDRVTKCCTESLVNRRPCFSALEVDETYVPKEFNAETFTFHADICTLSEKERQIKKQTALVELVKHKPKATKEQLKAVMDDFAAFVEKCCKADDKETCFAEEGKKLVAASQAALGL

PSMA [5] = target: T1, PSMA; test: Competitive binding (IC50) on LNCaP cells vs ([125I]I-BA)KuE; conditions: ratio of IC50 values
Description: (§1) Competitive binding studies were determined on LNCaP cells (1.5 × 10^5 cells in 1 mL/well) after incubation at 4 °C for 1 h, using (((S)-1-carboxy-5-(4-([^125I]iodo)benzamido)pentyl)carbamoyl)-L-glutamic acid (([^125I]I-BA)KuE; 0.2 nM/well) as reference radioligand (n = 5–9). Internalization studies of the radiolabeled ligands (0.5 nM/well) were performed on LNCaP cells (1.25 × 10^5 cells in 1 mL/well) at 37 °C for 1 h and accompanied by ([^125I]I-BA)KuE (0.2 nM/well), as reference. Data were corrected for non-specific binding and normalized to the specific internalization observed for the reference (n = 3–6). A detailed description of the experimental procedures was previously published.

LNCaP cells [6] = test: Internalization into LNCaP cells relative to ([125I]I-BA)KuE; assay type: cell-based; conditions: 1 h, 37 °C, percentage of reference ligand ([125I]I-BA)KuE, n = 3-6
Description: as §1

human serum albumin [7] = target: T2, human serum albumin; test: Human serum albumin binding on Chiralpak HSA column; assay type: in vitro ADME
Description: Approximately 1 MBq of the ^18F-ligand was dissolved in 1 mL of a 1:1 mixture (v/v) of phosphate-buffered saline (PBS, pH 7.4) and n-octanol (n = 18–23). After vigorous mixing of the suspension for 3 min, the vial was centrifuged at 15,000 × g for 3 min and 100 μL aliquots of both layers were measured in a γ-counter. HSA binding of ^19F-^natGa-rhPSMA ligands was determined according to a previously published procedure.

[8] = tested on: LNCaP tumor-bearing male CB-17 SCID mice; test: Biodistribution 1 h p.i.; assay type: in vivo
Description: (§2) LNCaP tumor xenografts were established in 6–8 weeks old male CB-17 SCID mice as described previously.
(§3) 1–3 MBq (0.2 nmol) of the [^18F, ^natGa]rhPSMA inhibitors were injected into the tail vein of LNCaP tumor-bearing male CB-17 SCID mice that were sacrificed 1 h post injection (p.i.) (n = 4 for 7.1, n = 5 for 7.2, n = 4 for 7.3, n = 5 for 7.4 and n = 3 for 7). Selected organs were removed, weighed, and measured in a γ-counter. For competition studies, 8 mg/kg of 2-PMPA (2-(Phosphonomethyl)-pentandioic acid) were co-administered (n = 3).

[9] = tested on: LNCaP tumor-bearing male CB-17 SCID mice; test: Biodistribution 1 h p.i. with competition (co-injection of 2-PMPA); assay type: in vivo; conditions: co-injected with 2-PMPA (8 mg/kg), n = 3
Description: as §2, §3

LNCaP tumor-bearing mice = test: Differential uptake and excretion pattern of isomers after injection of the diastereomeric mixture (radio-HPLC); assay type: in vivo; conditions: blood, liver, kidney and tumor, 30 min p.i., n = 4
Description: With the intention to identify even marginal differences in the in vivo behavior, all four [^18F, ^natGa]rhPSMA-7 isomers were co-evaluated in one single tumor-bearing mouse in order to quantify the differential uptake and excretion pattern of each isomer. For this purpose, the diastereomeric mixture [^18F, ^natGa]rhPSMA-7 was produced in high molar activity (AM) of 247–349 GBq/µmol (at end of synthesis) and the abundance of each isomer was determined by radio-HPLC. Mice (n = 4) were injected with [^18F, ^natGa]rhPSMA-7 (180–280 MBq, 0.9–1.0 nmol) and left under anesthesia. After 30 min p.i., they were sacrificed and urine, blood, liver, kidneys and tumor were collected and processed. Radioactivity was extracted from solid tissues by means of a Potter–Elvehjem tissue grinder (n = 1) or a ball mill (n = 3) and separated from the protein fraction by subsequent cartridge-based solid-phase extraction (SPE). Blood samples were diluted, centrifuged and the supernatant was purified by SPE (see supporting information). Urine and extracts from tissue samples were then analyzed by radio-HPLC to quantify the fraction of each isomer in each sample. Finally, the relative percentage difference between the abundance of each isomer in the injected diastereomeric mixture (values taken from the quality control) and the abundance of the respective isomer in each analyzed tissue or body fluid was calculated. […] PeakFit allows for automated nonlinear separation, analysis and quantification of HPLC elution profiles by deconvolution procedures that uses a Gaussian response function with a Fourier deconvolution/filtering algorithm (see Additional file 1: Fig. 7).
Extraction via the Potter-Elvehjem Tissue Grinder. Tumor and kidneys were separately homogenized in the tissue homogeniser with 1 mL of extraction buffer (850 μL 1 M HEPES pH 7.4, 100 μL 20 mM PMPA and 100 μL 1 M NaCl) for 30 min. The resulting homogenate was collected and centrifuged at 13000×g for 5 min. Subsequently, the supernatant was collected, centrifuged again (13000×g, 5 min) and loaded on a Strata X cartridge (33 μm Polymeric Reversed Phase 500 mg) preconditioned with 5 mL MeOH, followed by 5 mL H2O. After washing with 5 mL H2O, the cartridge was eluted with a 3:2 mixture (v/v) of MeCN in H2O supplemented with 1% TFA. For radio-HPLC analysis the eluates were diluted with water.
Extraction via the MM-400 Ball Mill. The samples (tumor, kidney, liver) were separately homogenized in a 2 mL tube together with 3 grinding balls (3 mm diameter) and 1 mL of extraction buffer (850 μL 1 M HEPES pH 7.4, 100 μL 20 mM PMPA and 100 μL 1 M NaCl) for 10 min at 30 Hz. The homogenate was centrifuged at 13 000×g for 5 min and the supernatant was collected. […]

[10] = design: method as in PMID 16888726, doi:10.1016/j.jfluchem.2010.10.008; conditions: cited from earlier work

T1 sequence (Q04609 whole entry): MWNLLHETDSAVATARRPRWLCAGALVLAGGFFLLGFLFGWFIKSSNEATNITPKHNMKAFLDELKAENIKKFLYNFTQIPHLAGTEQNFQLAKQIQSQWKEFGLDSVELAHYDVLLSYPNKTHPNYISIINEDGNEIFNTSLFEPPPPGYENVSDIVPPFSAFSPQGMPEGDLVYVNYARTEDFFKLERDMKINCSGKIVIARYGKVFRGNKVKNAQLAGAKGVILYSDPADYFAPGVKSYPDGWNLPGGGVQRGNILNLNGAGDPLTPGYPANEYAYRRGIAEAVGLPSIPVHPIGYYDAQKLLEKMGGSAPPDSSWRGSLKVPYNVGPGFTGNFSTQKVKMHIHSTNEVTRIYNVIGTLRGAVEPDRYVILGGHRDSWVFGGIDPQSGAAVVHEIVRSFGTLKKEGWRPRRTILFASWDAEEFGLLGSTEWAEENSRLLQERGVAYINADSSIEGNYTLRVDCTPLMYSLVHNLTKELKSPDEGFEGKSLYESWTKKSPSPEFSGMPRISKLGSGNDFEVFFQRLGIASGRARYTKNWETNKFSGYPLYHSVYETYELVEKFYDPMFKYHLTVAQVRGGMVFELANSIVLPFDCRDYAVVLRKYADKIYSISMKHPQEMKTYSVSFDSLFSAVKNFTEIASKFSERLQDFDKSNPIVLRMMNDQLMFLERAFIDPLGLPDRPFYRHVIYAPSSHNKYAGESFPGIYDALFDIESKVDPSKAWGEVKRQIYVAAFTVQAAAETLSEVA

Row | HSA-binding (human serum albumin [7]) [%] | Biodistribution Adrenals [8] [% ID/g] | Biodistribution Blood [8] [% ID/g] | Biodistribution Bone [8] [% ID/g] | Biodistribution Heart [8] [% ID/g] | Biodistribution Intestine [8] [% ID/g] | Biodistribution Kidneys [8] [% ID/g] | Biodistribution Liver [8] [% ID/g] | Biodistribution Lung [8] [% ID/g] | Biodistribution Muscle [8] [% ID/g] | Biodistribution Pancreas [8] [% ID/g] | Biodistribution Spleen [8] [% ID/g] | Biodistribution Stomach [8] [% ID/g] | Biodistribution Tumor [8] [% ID/g] | Biodistribution Adrenals [9] [% ID/g] | Biodistribution Blood [9] [% ID/g] | Biodistribution Bone [9] [% ID/g] | SMILES | Internalization (internalized activity) (LNCaP cells [2]) | HSA-binding (human serum albumin [4]) [%] | Internalization (internalized activity) (LNCaP cells [6]) | further results
1 |  |  |  |  |  |  |  |  |  |  |  |  |  |  |  |  |  | O=C(O)CC[C@H](NC(=O)N[C@@H](CCCCNC(=O)[C@H](Cc1ccc2ccccc2c1)NC(=O)c1ccc(CNC(=O)[C@H](CCC(=O)O)NC(=O)[C@H](CCC(=O)O)NC(=O)c2ccc(F)nc2)cc1)C(=O)O)C(=O)O [[^18/19F]PSMA-1007] |  |  |  | IC50 (PSMA [1]): 4.2 ± 0.5 nM
2 |  |  |  |  |  |  |  |  |  |  |  |  |  |  |  |  |  | O=C(O)CC[C@H](NC(=O)N[C@@H](CCCCNC(=O)[C@H](Cc1ccc2ccccc2c1)NC(=O)c1ccc(CNC(=O)[C@H](CCC(=O)O)NC(=O)[C@H](CCC(=O)O)NC(=O)c2ccc([18F])nc2)cc1)C(=O)O)C(=O)O [[^18/19F]PSMA-1007] | 118 ± 5 % of reference | 98 |  | Lipophilicity Log D ([3]; listed as [^18F]PSMA-1007): -1.6 ± 0.02; HSA-binding (human serum albumin [4]; listed as [^19F]PSMA-1007): > 96%
3 | 98 | 2.0 ± 0.25 | 0.53 ± 0.13 | 0.50 ± 0.31 | 0.53 ± 0.03 | 0.30 ± 0.16 | 220 ± 24.8 | 0.75 ± 0.62 | 1.1 ± 0.21 | 0.32 ± 0.30 | 0.45 ± 0.12 | 20.0 ± 4.2 | 0.28 ± 0.17 | 14.1 ± 4.1 | 0.003 ± 0.004 | 0.86 ± 0.40 | 0.33 ± 0.24 | CC(C)(C)[Si]([18F])(c1ccc(C(=O)NC[C@@H](NC(=O)CC[C@H](C(=O)O)N2CCN(CC(=O)[O-])CCN(CC(=O)[O-])CCN(CC(=O)[O-])CC2)C(=O)N[C@H](CCCCNC(=O)CCC(=O)NCCC[C@@H](NC(=O)CC[C@H](NC(=O)N[C@@H](CCC(=O)O)C(=O)O)C(=O)O)C(=O)O)C(=O)O)cc1)C(C)(C)C.[Ga+3] [[^18F, ^natGa]rhPSMA-7.1] |  |  | 70 ± 5 % of reference | Affinity fold higher than that of [19F]DCFPyL (PSMA [5]): 1.8 fold; Biodistribution Heart [9]: 0.37 ± 0.16 % ID/g; Biodistribution Intestine [9]: 0.66 ± 0.32 % ID/g; Biodistribution Kidneys [9]: 10.9 ± 2.5 % ID/g; Biodistribution Liver [9]: 0.43 ± 0.07 % ID/g; Biodistribution Lung [9]: 0.85 ± 0.29 % ID/g; Biodistribution Muscle [9]: 0.17 ± 0.15 % ID/g; Biodistribution Pancreas [9]: 0.16 ± 0.10 % ID/g; Biodistribution Spleen [9]: 0.21 ± 0.08 % ID/g; Biodistribution Stomach [9]: 0.97 ± 0.81 % ID/g; Biodistribution Tumor [9]: 0.94 ± 0.22 % ID/g; Abundance (enrichment) of the isomer in tissue compared to time point of injection (LNCaP tumor-bearing mice): higher
4 | 97 | 2.2 ± 0.83 | 0.96 ± 0.24 | 0.38 ± 0.32 | 0.87 ± 0.17 | 0.35 ± 0.07 | 292 ± 45.1 | 0.69 ± 0.13 | 2.2 ± 0.35 | 0.33 ± 0.15 | 0.63 ± 0.44 | 16.6 ± 2.6 | 0.44 ± 0.23 | 18.3 ± 7.2 | 0.07 ± 0.09 | 0.55 ± 0.14 | 0.34 ± 0.22 | CC(C)(C)[Si]([18F])(c1ccc(C(=O)NC[C@@H](NC(=O)CC[C@@H](C(=O)O)N2CCN(CC(=O)[O-])CCN(CC(=O)[O-])CCN(CC(=O)[O-])CC2)C(=O)N[C@H](CCCCNC(=O)CCC(=O)NCCC[C@@H](NC(=O)CC[C@H](NC(=O)N[C@@H](CCC(=O)O)C(=O)O)C(=O)O)C(=O)O)C(=O)O)cc1)C(C)(C)C.[Ga+3] [[^18F, ^natGa]rhPSMA-7.3] |  |  | 161 ± 9 % of reference | Biodistribution Heart [9]: 0.26 ± 0.04 % ID/g; Biodistribution Intestine [9]: 0.94 ± 0.97 % ID/g; Biodistribution Kidneys [9]: 15.5 ± 2.2 % ID/g; Biodistribution Liver [9]: 0.46 ± 0.14 % ID/g; Biodistribution Lung [9]: 0.69 ± 0.10 % ID/g; Biodistribution Muscle [9]: 0.09 ± 0.02 % ID/g; Biodistribution Pancreas [9]: 0.11 ± 0.02 % ID/g; Biodistribution Spleen [9]: 0.35 ± 0.02 % ID/g; Biodistribution Stomach [9]: 0.76 ± 0.74 % ID/g; Biodistribution Tumor [9]: 1.5 ± 0.4 % ID/g; Abundance (enrichment) of the isomer in tissue compared to time point of injection (LNCaP tumor-bearing mice): higher
5 |  |  |  |  |  |  |  |  |  |  |  |  |  |  |  |  |  | O=C(O)CC[C@H](NC(=O)N[C@@H](CCCCNC(=O)c1ccc(F)nc1)C(=O)O)C(=O)O [[^18/19F]DCFPyL] | 118 ± 4 % of reference | 14 |  | Lipophilicity Log D ([3]; listed as [^18F]DCFPyL): -3.4 ± 0.03
6 |  |  |  |  |  |  |  |  |  |  |  |  |  |  |  |  |  | CC(C)(C)[Si](F)(c1ccc(C(=O)O)cc1)C(C)(C)C [SiFA-moiety, 4-(di-tert-butylfluorosilyl)benzoic acid] |  |  |  | log P [10]: 3.6
